Experimental data published in patent EP0235823A2, “Carbapenem antibiotics, a process for preparing them and pharmaceutical compositions containing them” (Bristol-Myers Squibb Company, priority 1986, dated 1987).
In brackets after ≈: the same amount, converted by molar mass.

Tests used:
Assay type in all cases: cell-based
[1] = system: S.aureus + 50% serum A9537S; test: In vitro antibacterial activity, MIC by tube dilution, with 50% serum; conditions: Staphylococcus aureus, read-out: MIC (mcg/ml)
Source text: (§1) C by tube dilution. N-formimidoyl thienamycin was included as a comparison compound.

S.aureus A9537 = test: In vitro antibacterial activity, MIC by tube dilution; conditions: Staphylococcus aureus, Nutrient Broth, overnight incubation at 37 deg. C
Source text: as §1

S.faecalis A20688 = test: as above; conditions: Enterococcus faecalis, Nutrient Broth, overnight incubation at 37 deg. C
Source text: as §1

S.pneumoniae A9585 = test: as above; conditions: Streptococcus pneumoniae, Nutrient Broth, overnight incubation at 37 deg. C
Source text: as §1

S.pyogenes A9604 = test: as above; conditions: Streptococcus pyogenes, Nutrient Broth, overnight incubation at 37 deg. C
Source text: as §1

C[C@@H](O)[C@H]1C(=O)N2C(C(=O)[O-])=C(SCC[N+]34CCN(CC3)CC4)[C@H](C)[C@H]12 [Ex. 7, (5R,6S) 3-[2-(1,4-diazabicyclo[2.2.2.]octanium-1-yl)ethylthio]-6-(1R-hydroxyethyl)-4R-methy3-7-oxo-1-azabicyclo[3.2.0]hept-2-ene-2-carboxylate]
MIC [1]: 0.13 µg/mL (≈ 0.341 µM)
MIC (S.aureus A9537): 0.5 µg/mL (≈ 1.31 µM)
MIC (S.faecalis A20688): 2 µg/mL (≈ 5.24 µM)
MIC (S.pneumoniae A9585): 0.03 µg/mL (≈ 0.0786 µM)
MIC (S.pyogenes A9604): 0.03 µg/mL (≈ 0.0786 µM)

CC(O)C1C(=O)N2C(C(=O)O)=C(SCCN=CN)CC12 (stereo not shown) [N-Formimidoy Thienamycin, N-formimidoyl thienamycin]
MIC [1]: 0.016 µg/mL (≈ 0.0534 µM)
MIC (S.aureus A9537): 0.004 µg/mL (≈ 0.0134 µM)
MIC (S.faecalis A20688): 0.25 µg/mL (≈ 0.835 µM)
MIC (S.pneumoniae A9585): 0.002 µg/mL (≈ 0.00668 µM)
MIC (S.pyogenes A9604): 0.002 µg/mL (≈ 0.00668 µM)
